Test: not given
Settings: cited from earlier work

Row | Compound | solubility in water
1 | ivermectin | practically insoluble in water
2 | CC(=O)O[C@@]12CO[C@@H]1C[C@H](O)[C@@]1(C)C(=O)[C@H](O)C3=C(C)[C@@H](OC(=O)[C@H](O)[C@@H](NC(=O)OC(C)(C)C)c4ccccc4)C[C@@](O)([C@@H](OC(=O)c4ccccc4)[C@H]21)C3(C)C [docetaxel] | insoluble in water
3 | CC(=O)O[C@H]1C(=O)[C@@]2(C)[C@H]([C@H](OC(=O)c3ccccc3)[C@]3(O)C[C@H](OC(=O)[C@H](O)[C@@H](NC(=O)c4ccccc4)c4ccccc4)C(C)=C1C3(C)C)[C@]1(OC(C)=O)CO[C@@H]1C[C@@H]2O [paclitaxel] | insoluble in water

Test: not given
Settings: chloroform/water; cited from earlier work

Row | Compound | partition coefficient chloroform/water: log P
4 | ivermectin | 3

Same assay, conditions: ethyl acetate/water; cited from earlier work

Row | Compound | partition coefficient ethyl acetate/water: log P
5 | ivermectin | 4

Test: not given
Settings: cited from earlier work
Remark: another data set of the same source

Row | Compound | log P
6 | CCCSc1ccc2nc(NC(=O)OC)[nH]c2c1 [albendazole] | 3.22

Same assay, conditions: octanol/water partition coefficient; cited from earlier work

Row | Compound | log P
7 | O=C(Nc1ccc(Oc2ccc(Cl)cc2)c(Cl)c1)c1cc(I)cc(I)c1O [rafoxanide] | 8.75
8 | COC(=O)Nc1nc2ccc(Sc3ccccc3)cc2[nH]1 [fenbendazole] | 4.26
9 | CC1=CC(=O)c2ccccc2C1=O [menadione] | 8
10 | CC(C)(Oc1ccc(CCNC(=O)c2ccc(Cl)cc2)cc1)C(=O)O [bezafibrate] | 3.53
11 | CSc1nc2cc(Cl)c(Oc3cccc(Cl)c3Cl)cc2[nH]1 [triclabendazole] | 6.45
12 | O=C(Nc1cc(Cl)cc(Cl)c1O)c1c(O)c(Cl)cc(Cl)c1Cl [oxyclozanide] | 5.35
13 | COC(=O)[C@@H]1[C@H]2C[C@H]3c4[nH]c5ccccc5c4CCN3C[C@@H]2CC[C@@H]1O [yohimbine] | 2.73
14 | Cc1c([N+](=O)[O-])cc(C(C)(C)C)c(O)c1C(=O)Nc1ccc(Br)cc1C(F)(F)F [bromoxanide] | 5.65
15 | Cc1cccc(Nc2ccccc2C(=O)O)c1C [mefenamic acid] | 5.3
16 | Cc1c2ccncc2c(C)c2c1[nH]c1ccccc12 [ellipticine] | 4.80
17 | O=C(Nc1ccc(Br)cc1)c1cc(Br)cc(Br)c1O [tribromosalan] | 5.86
18 | Cc1ccc(C)c(OCCCC(C)(C)C(=O)O)c1 [gemfibrozil] | 3.90
19 | CC[C@H](C)C(=O)O[C@H]1CCC=C2C=C[C@H](C)[C@H](CC[C@@H]3C[C@@H](O)CC(=O)O3)[C@H]21 [mevastatin] | 3.52
20 | O=C1c2ccccc2C(=O)C1c1ccccc1 [phenyl indanedione] | 2.90
21 | CC[C@H](C)C(=O)O[C@H]1C[C@@H](C)C=C2C=C[C@H](C)[C@H](CC[C@@H]3C[C@@H](O)CC(=O)O3)[C@H]21 [lovastatin] | 4.04
22 | CC[C@H]1OC(=O)[C@H](C)[C@@H](O[C@H]2C[C@@](C)(OC)[C@@H](O)[C@H](C)O2)[C@H](C)[C@@H](O[C@@H]2O[C@H](C)C[C@H](N(C)C)[C@H]2O)[C@](C)(O)C[C@@H](C)/C(=N\OCOCCOC)[C@H](C)[C@@H](O)[C@]1(C)O [roxithromycin] | ~2.5
23 | CC(=O)Oc1c(Br)cc(Cl)cc1C(=S)Nc1ccc(Br)cc1 [brotianide] | 5.30
24 | CC(C)C(=O)Nc1ccc([N+](=O)[O-])c(C(F)(F)F)c1 [flutamide] | 3.5

Row | Compound | log P
25 | CCOC(=O)C(C)(C)Oc1ccc(Cl)cc1 [clofibrate] | 3.65
26 | Cc1cc(C(C#N)c2ccc(Cl)cc2)c(Cl)cc1NC(=O)c1cc(I)cc(I)c1O (centres unmarked) [closantel] | > 7
27 | CO[C@@H]1[C@@H](O[C@@H]2O[C@H](C)[C@@H](O[C@H]3C[C@@](C)(O)[C@@H](OC(=O)CC(C)C)[C@H](C)O3)[C@H](N(C)C)[C@H]2O)[C@@H](CC=O)C[C@@H](C)[C@@H](O)/C=C/C=C/C[C@@H](C)OC(=O)C[C@H]1OC(C)=O [josamycin] | 2.39
28 | CCN(CC)C(=O)Nc1ccc(OCC(O)CNC(C)(C)C)c(C(C)=O)c1 (centres unmarked) [celiprolol] | 2.07
29 | OC(c1cc(C(F)(F)F)nc2c(C(F)(F)F)cccc12)C1CCCCN1 (centres unmarked) [mefloquin] | 3.36
30 | Cc1nccn1CC1CCc2c(c3ccccc3n2C)C1=O (centres unmarked) [ondansetron] | 2.63
31 | CC1=C(/C=C/C(C)=C/C=C/C(C)=C/CO)C(C)(C)CCC1 [retinol] | 5.68
32 | CC(C)(C)c1ccc(C(O)CCCN2CCC(C(O)(c3ccccc3)c3ccccc3)CC2)cc1 (centres unmarked) [terfenadine] | 3.22
33 | O=C(Nc1ccc(Br)cc1)c1cc(Br)ccc1O [dibromosalan] | 5.18
34 | CC(C)(Oc1ccc(C2CC2(Cl)Cl)cc1)C(=O)O (centres unmarked) [ciprofibrate] | 3.15
35 | COC(=O)Nc1nc2ccc(C(=O)c3ccccc3)cc2[nH]1 [mebendazole] | 3.10
36 | c1ccc2[nH]c(-c3cscn3)nc2c1 [tiabendazole] | 2.31
37 | CCC(C)n1ncn(-c2ccc(N3CCN(c4ccc(OCC5COC(Cn6cncn6)(c6ccc(Cl)cc6Cl)O5)cc4)CC3)cc2)c1=O (centres unmarked) [itraconazole] | 5.68
38 | CC(=O)Oc1c(I)cc(I)cc1C(=O)Nc1ccc(Cl)cc1 [clioxanide] | 5.45
39 | OCCSCCCCCCCCCCSCCO [tiadenol] | 4.58
40 | CCCc1nc2c(C)cc(-c3nc4ccccc4n3C)cc2n1Cc1ccc(-c2ccccc2C(=O)O)cc1 [telmisartan] | 4.8
41 | CCOC(=O)C1=C(C)NC(C)=C(C(=O)OC)C1c1cccc([N+](=O)[O-])c1 (centres unmarked) [nitrendipine] | 3.7
42 | CN(C/C=C/C#CC(C)(C)C)Cc1cccc2ccccc12 [terbinafin] | 5.42

Test: dissolution trials: solubility of the active principle in the cosurfactant
Assay type: physicochemical
Settings: cosurfactant Capryol

Row | Compound | solubility in propylene glycol monocaprylate (Capryol) [%]
43 | CC(=O)[C@H]1CC[C@H]2[C@@H]3CCC4=CC(=O)CC[C@]4(C)[C@H]3CC[C@]12C [progesterone] | 5

Same assay, conditions: cosurfactant Transcutol

Row | Compound | solubility in monoethyl ether of diethylene glycol (Transcutol) [%]
44 | CC1=C(/C=C/C(C)=C/C=C/C(C)=C\C(=O)O)C(C)(C)CCC1 [isotretinoin, 13-cis-retinoic acid] | 3

— patent publication US20040052824A1, “Micellar colloidal pharmaceutical composition containing a lipophilic active principle” (priority 2000, published 2004)
